# Reference: paper PMC3940203, “Elements in nucleotide sensing and hydrolysis of the AAA+ disaggregation machine ClpB: a structure-based mechanistic dissection of a molecular motor” (Acta Crystallographica Section D: Biological Crystallography, 2014)
# Legend:
# ClpB NBD2 [1] = target: T1, ClpB NBD2 (Thermus thermophilus, UniProt Q9RA63); assay: X-ray crystal structure, […] Å; assay type: binding; details: co-crystal with 2 mM ADP, pH 7.0; nucleotide site of NBD2, no Mg2+ bound
# T1 sequence (Q9RA63 520-854): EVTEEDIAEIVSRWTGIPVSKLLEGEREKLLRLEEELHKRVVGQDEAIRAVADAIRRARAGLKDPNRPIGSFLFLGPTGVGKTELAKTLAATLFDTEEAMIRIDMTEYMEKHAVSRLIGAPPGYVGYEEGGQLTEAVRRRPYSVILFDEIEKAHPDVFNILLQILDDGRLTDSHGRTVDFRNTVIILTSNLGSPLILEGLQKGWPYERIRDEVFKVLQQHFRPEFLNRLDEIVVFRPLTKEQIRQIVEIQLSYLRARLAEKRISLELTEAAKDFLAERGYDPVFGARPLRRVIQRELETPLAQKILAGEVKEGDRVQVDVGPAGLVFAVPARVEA
# ClpB NBD2 [2] = target: T2, ClpB NBD2 (Thermus thermophilus, UniProt Q9RA63, N709A); assay: stopped-flow FRET, displacement and competition with MANT-dADP, global fit; Kd = koff/kon; assay type: binding; details: 50 mM Tris-HCl pH 7.5, 200 mM KCl, 5 mM MgCl2, 2 mM EDTA, 25 °C
# T2 sequence (Q9RA63 520-854 N709A): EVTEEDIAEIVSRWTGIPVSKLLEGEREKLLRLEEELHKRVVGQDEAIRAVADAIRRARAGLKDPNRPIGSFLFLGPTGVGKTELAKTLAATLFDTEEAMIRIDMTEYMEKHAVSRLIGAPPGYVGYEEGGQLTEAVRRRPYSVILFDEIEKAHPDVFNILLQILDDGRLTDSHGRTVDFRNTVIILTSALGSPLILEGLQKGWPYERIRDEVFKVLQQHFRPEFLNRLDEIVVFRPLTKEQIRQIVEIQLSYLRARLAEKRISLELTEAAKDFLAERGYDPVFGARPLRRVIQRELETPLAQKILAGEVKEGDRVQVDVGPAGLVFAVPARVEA
# Source text: (§1) stopped-flow FRET, displacement and competition with MANT-dADP, global fit; Kd = koff/kon on ClpB NBD2
# ClpB NBD2 [3] = target: T3, ClpB NBD2 (Thermus thermophilus, UniProt Q9RA63, R621Q); assay: as above; details: 50 mM Tris-HCl pH 7.5, 200 mM KCl, 5 mM MgCl2, 2 mM EDTA, 25 °C; read-out: Nucleotide binding / K d
# T3 sequence (Q9RA63 520-854 R621Q): as the sequence (Q9RA63 520-854 N709A) above, with R102Q, A190N counted along it
# Source text: as §1
# ClpB NBD2 [4] = target: T4, ClpB NBD2 (Thermus thermophilus, UniProt Q9RA63, R806A); assay: as above; details: 50 mM Tris-HCl pH 7.5, 200 mM KCl, 5 mM MgCl2, 2 mM EDTA, 25 °C; read-out: Nucleotide binding / K d
# T4 sequence (Q9RA63 520-854 R806A): as the sequence (Q9RA63 520-854 N709A) above, with A190N, R287A counted along it
# Source text: as §1
# ClpB NBD2 [5] = target: T2, ClpB NBD2; assay: stopped-flow FRET, direct mixing and displacement, global fit; Kd = koff/kon; assay type: binding; details: 50 mM Tris-HCl pH 7.5, 200 mM KCl, 5 mM MgCl2, 2 mM EDTA, 25 °C; labelled compound
# Source text: (§2) stopped-flow FRET, direct mixing and displacement, global fit; Kd = koff/kon on ClpB NBD2
# ClpB NBD2 [6] = target: T3, ClpB NBD2; assay: as above; assay type: binding; details: 50 mM Tris-HCl pH 7.5, 200 mM KCl, 5 mM MgCl2, 2 mM EDTA, 25 °C; labelled compound
# Source text: as §2
# ClpB NBD2 [7] = target: T4, ClpB NBD2; assay: as above; assay type: binding; details: 50 mM Tris-HCl pH 7.5, 200 mM KCl, 5 mM MgCl2, 2 mM EDTA, 25 °C; labelled compound
# Source text: as §2
# ClpB NBD2 [8] = target: T1, ClpB NBD2; assay: X-ray crystal structure, […] Å; assay type: binding; details: co-crystal with 2 mM AMPPCP, pH 7.0; nucleotide site of NBD2, no Mg2+ bound
# ClpB NBD2 [9] = target: T2, ClpB NBD2; assay: stopped-flow FRET, competition and displacement with MANT-dADP, global fit; Kd = koff/kon; details: 50 mM Tris-HCl pH 7.5, 200 mM KCl, 5 mM MgCl2, 2 mM EDTA, 25 °C; ATP-regenerating system (pyruvate kinase, phosphoenolpyruvate); read-out: Nucleotide binding / K d
# Source text: (§3) stopped-flow FRET, competition and displacement with MANT-dADP, global fit; Kd = koff/kon on ClpB NBD2
# ClpB NBD2 [10] = target: T3, ClpB NBD2; assay: as above; details: 50 mM Tris-HCl pH 7.5, 200 mM KCl, 5 mM MgCl2, 2 mM EDTA, 25 °C; ATP-regenerating system (pyruvate kinase, phosphoenolpyruvate); read-out: Nucleotide binding / K d
# Source text: as §3
# ClpB NBD2 [11] = target: T4, ClpB NBD2; assay: as above; details: 50 mM Tris-HCl pH 7.5, 200 mM KCl, 5 mM MgCl2, 2 mM EDTA, 25 °C; ATP-regenerating system (pyruvate kinase, phosphoenolpyruvate); read-out: Nucleotide binding / K d
# Source text: as §3
compound,measurement,setting,value
Nc1ncnc2c1ncn2[C@@H]1O[C@H](COP(=O)(O)OP(=O)(O)O)[C@@H](O)[C@H]1O [ADP],"X-ray crystal structure, 2.4 Å",ClpB NBD2 [1],"Wild-type ClpB NBD2 in complex with ADP, PDB entry 4lj5"
same,Nucleotide binding / K d (μM),ClpB NBD2 [2],0.43 ± 8 × 10^−3 µM
same,Kd,ClpB NBD2 [3],1.5 ± 0.02 µM
same,Kd,ClpB NBD2 [4],3.8 ± 0.06 µM
CNc1ccccc1C(=O)O[C@H]1C[C@H](n2cnc3c(N)ncnc32)O[C@@H]1COP(=O)(O)OP(=O)(O)O [MANT-dADP],Nucleotide binding / K d (μM),ClpB NBD2 [5],0.0024 ± 3 × 10^−5 µM
same,Nucleotide binding / K d (μM),ClpB NBD2 [6],0.0068 ± 8 × 10^−5 µM
same,Nucleotide binding / K d (μM),ClpB NBD2 [7],0.027 ± 1 × 10^−4 µM
Nc1ncnc2c1ncn2[C@@H]1O[C@H](COP(=O)(O)OP(=O)(O)CP(=O)(O)O)[C@@H](O)[C@H]1O [AMPPCP],"X-ray crystal structure, 1.9 Å",ClpB NBD2 [8],"Wild-type ClpB NBD2 in complex with AMPPCP, PDB entry 4lj6"
Nc1ncnc2c1ncn2[C@@H]1O[C@H](COP(=O)(O)OP(=O)(O)OP(=O)(O)O)[C@@H](O)[C@H]1O [ATP],Kd,ClpB NBD2 [9],74 ± 3 µM
same,Kd,ClpB NBD2 [10],55 ± 2 µM
same,Kd,ClpB NBD2 [11],84 ± 4 µM
CNc1ccccc1C(=O)O[C@H]1C[C@H](n2cnc3c(N)ncnc32)O[C@@H]1COP(=O)(O)OP(=O)(O)OP(=O)(O)O [MANT-dATP],Nucleotide binding / K d (μM),ClpB NBD2 [7],0.29 ± 2 × 10^−3 µM
